Test results as given in patent publication US20250101023A1, “HETEROARYL DERIVATIVE AND USES THEREOF” (IUCF-HYU (INDUSTRY-UNIVERSITY COOPERATION FOUNDATION …, priority 2022, published 2025).

Experiments:
PKCg = PKCg (Homo sapiens (Human), UniProt P05129); assay: Kinome-wide profiling; assay type: biochemical; settings: read-out: % Residual Activity (mean)
TXK = TXK (Homo sapiens (Human), UniProt P42681); assay: Kinome-wide profiling; assay type: biochemical; settings: read-out: % Residual Activity (mean)
CK2a2 = CK2a2 (Homo sapiens (Human), UniProt P19784); assay: Kinome-wide profiling; assay type: biochemical; settings: read-out: % Residual Activity (mean)
CYP1A2 = CYP1A2 (Homo sapiens (Human), UniProt P05177); assay: in vitro; assay type: in vitro ADME
Method: 5 derivatives were evaluated for in vitro metabolic stability in liver microsomes from three different species (human, dog, mouse) and for inhibitory activity against 5 representative cytochrome P450 enzymes (CYPs)(Table 3). In terms of liver microsomal stability, the 2′-pyridyl group is more suitable than the α-methyl-4′-pyridyl group as the terminal aromatic group at position 6, and the aminopyrimidyl group is better than the aminopyridyl group as a substituent at position 2.

c-MER = c-MER (Homo sapiens (Human), UniProt Q12866); assay: Kinome-wide profiling; assay type: biochemical; settings: read-out: % Residual Activity (mean)
CAMK1b = CAMK1b (Homo sapiens (Human), UniProt Q6P2M8); assay: Kinome-wide profiling; assay type: biochemical; settings: read-out: % Residual Activity (mean)
PKCb1 = PKCb1 (Homo sapiens (Human), UniProt P05771); assay: Kinome-wide profiling; assay type: biochemical; settings: read-out: % Residual Activity (mean)
CAMK2b = CAMK2b (Homo sapiens (Human), UniProt Q13554); assay: Kinome-wide profiling; assay type: biochemical; settings: read-out: % Residual Activity (mean)
MSSK1/STK23 = MSSK1/STK23 (Homo sapiens (Human), UniProt Q9UPE1); assay: Kinome-wide profiling; assay type: biochemical; settings: read-out: % Residual Activity (mean)
CAMK1d = CAMK1d (Homo sapiens (Human), UniProt Q8IU85); assay: Kinome-wide profiling; assay type: biochemical; settings: read-out: % Residual Activity (mean)
FMS = FMS (Homo sapiens (Human), UniProt P07333); assay: Kinome-wide profiling; assay type: biochemical; settings: read-out: % Residual Activity (mean)
MST4 = MST4 (Homo sapiens (Human), UniProt Q9P289); assay: Kinome-wide profiling; assay type: biochemical; settings: read-out: % Residual Activity (mean)
DYRK2 = DYRK2 (Homo sapiens (Human), UniProt Q92630); assay: Kinome-wide profiling; assay type: biochemical; settings: read-out: % Residual Activity (mean)
PAK6 = PAK6 (Homo sapiens (Human), UniProt Q9NQU5); assay: Kinome-wide profiling; assay type: biochemical; settings: read-out: % Residual Activity (mean)
WEE1 = WEE1 (Homo sapiens (Human), UniProt P30291); assay: Kinome-wide profiling; assay type: biochemical; settings: read-out: % Residual Activity (mean)
MEKK2 = MEKK2 (Homo sapiens (Human), UniProt Q9Y2U5); assay: Kinome-wide profiling; assay type: biochemical; settings: read-out: % Residual Activity (mean)
ULK1 = ULK1 (Homo sapiens (Human), UniProt O75385); assay: Kinome-wide profiling; assay type: biochemical; settings: read-out: % Residual Activity (mean)
ERK7/MAPK15 = ERK7/MAPK15 (Homo sapiens (Human), UniProt Q8TD08); assay: Kinome-wide profiling; assay type: biochemical; settings: read-out: % Residual Activity (mean)
Aurora A = Aurora A (Homo sapiens (Human), UniProt O14965); assay: Kinome-wide profiling; assay type: biochemical; settings: read-out: % Residual Activity (mean)
PKA = PKA (Homo sapiens (Human), UniProt P17612); assay: Kinome-wide profiling; assay type: biochemical; settings: read-out: % Residual Activity (mean)
CLK3 = CLK3 (Homo sapiens (Human), UniProt P49761); assay: Kinome-wide profiling; assay type: biochemical; settings: read-out: % Residual Activity (mean)
PKAcg = PKAcg (Homo sapiens (Human), UniProt P22612); assay: Kinome-wide profiling; assay type: biochemical; settings: read-out: % Residual Activity (mean)
JNK3 = JNK3 (Homo sapiens (Human), UniProt P53779); assay: Kinome-wide profiling; assay type: biochemical; settings: read-out: % Residual Activity (mean)
c-Kit = c-Kit (Homo sapiens (Human), UniProt P10721); assay: Kinome-wide profiling; assay type: biochemical; settings: read-out: % Residual Activity (mean)
PHKg2 = PHKg2 (Homo sapiens (Human), UniProt P15735); assay: Kinome-wide profiling; assay type: biochemical; settings: read-out: % Residual Activity (mean)
HCK = HCK (Homo sapiens (Human), UniProt P08631); assay: Kinome-wide profiling; assay type: biochemical; settings: read-out: % Residual Activity (mean)
CDK1/cyclin B = CDK1/cyclin B (Homo sapiens (Human), UniProt P06493); assay: Kinome-wide profiling; assay type: biochemical; settings: read-out: % Residual Activity (mean)
NIM1 = NIM1 (Homo sapiens (Human), UniProt Q8IY84); assay: Kinome-wide profiling; assay type: biochemical; settings: read-out: % Residual Activity (mean)
PKCtheta = PKCtheta (Homo sapiens (Human), UniProt Q04759); assay: Kinome-wide profiling; assay type: biochemical; settings: read-out: % Residual Activity (mean)
TAOK3/JIK = TAOK3/JIK (Homo sapiens (Human), UniProt Q9H2K8); assay: Kinome-wide profiling; assay type: biochemical; settings: read-out: % Residual Activity (mean)
STK33 = STK33 (Homo sapiens (Human), UniProt Q9BYT3); assay: Kinome-wide profiling; assay type: biochemical; settings: read-out: % Residual Activity (mean)
MAST3 = MAST3 (Homo sapiens (Human), UniProt O60307); assay: Kinome-wide profiling; assay type: biochemical; settings: read-out: % Residual Activity (mean)
TYRO3/SKY = TYRO3/SKY (Homo sapiens (Human), UniProt Q06418); assay: Kinome-wide profiling; assay type: biochemical; settings: read-out: % Residual Activity (mean)
EPHB2 = EPHB2 (Homo sapiens (Human), UniProt P29323); assay: Kinome-wide profiling; assay type: biochemical; settings: read-out: % Residual Activity (mean)
ARK5/NUAK1 = ARK5/NUAK1 (Homo sapiens (Human), UniProt O60285); assay: Kinome-wide profiling; assay type: biochemical; settings: read-out: % Residual Activity (mean)
LIMK1 = LIMK1 (Homo sapiens (Human), UniProt P53667); assay: Kinome-wide profiling; assay type: biochemical; settings: read-out: % Residual Activity (mean)
LCK2/ICK = LCK2/ICK (Homo sapiens (Human), UniProt Q9UPZ9); assay: Kinome-wide profiling; assay type: biochemical; settings: read-out: % Residual Activity (mean)

Sequence of PKAcg (P22612 whole entry): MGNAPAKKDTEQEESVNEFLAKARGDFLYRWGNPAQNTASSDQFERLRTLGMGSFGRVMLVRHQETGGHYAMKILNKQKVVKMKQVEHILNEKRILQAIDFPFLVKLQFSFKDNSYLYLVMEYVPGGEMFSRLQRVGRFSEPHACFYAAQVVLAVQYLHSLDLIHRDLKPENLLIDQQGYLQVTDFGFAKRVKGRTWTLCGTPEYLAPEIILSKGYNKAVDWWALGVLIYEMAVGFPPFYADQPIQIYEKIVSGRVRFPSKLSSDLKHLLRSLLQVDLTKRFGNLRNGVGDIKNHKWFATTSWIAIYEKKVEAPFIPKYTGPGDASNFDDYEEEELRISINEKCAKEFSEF
Sequence of STK33 (Q9BYT3 whole entry): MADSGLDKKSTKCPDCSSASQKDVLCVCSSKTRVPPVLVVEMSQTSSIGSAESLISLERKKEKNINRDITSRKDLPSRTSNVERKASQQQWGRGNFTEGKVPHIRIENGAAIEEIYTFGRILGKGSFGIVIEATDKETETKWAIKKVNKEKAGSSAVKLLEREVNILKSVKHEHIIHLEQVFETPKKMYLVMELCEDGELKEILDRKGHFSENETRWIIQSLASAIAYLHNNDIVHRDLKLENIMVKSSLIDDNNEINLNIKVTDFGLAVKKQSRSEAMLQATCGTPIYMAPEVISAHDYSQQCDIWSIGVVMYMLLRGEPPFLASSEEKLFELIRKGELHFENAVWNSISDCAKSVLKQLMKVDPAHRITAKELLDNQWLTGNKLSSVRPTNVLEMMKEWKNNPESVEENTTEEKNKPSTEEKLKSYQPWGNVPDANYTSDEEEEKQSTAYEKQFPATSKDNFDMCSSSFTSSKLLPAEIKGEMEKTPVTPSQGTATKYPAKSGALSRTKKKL
Sequence of CDK1/cyclin B (P06493 whole entry): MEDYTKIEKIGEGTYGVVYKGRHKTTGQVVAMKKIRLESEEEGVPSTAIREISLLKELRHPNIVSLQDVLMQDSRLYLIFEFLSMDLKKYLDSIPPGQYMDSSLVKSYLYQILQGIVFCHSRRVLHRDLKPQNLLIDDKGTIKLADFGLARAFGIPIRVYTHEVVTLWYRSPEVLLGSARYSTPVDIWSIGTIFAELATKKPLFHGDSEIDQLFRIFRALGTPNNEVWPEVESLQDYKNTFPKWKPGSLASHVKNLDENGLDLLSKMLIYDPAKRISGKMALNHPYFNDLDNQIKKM
Sequence of CDK1/cyclin B (P14635 whole entry partner): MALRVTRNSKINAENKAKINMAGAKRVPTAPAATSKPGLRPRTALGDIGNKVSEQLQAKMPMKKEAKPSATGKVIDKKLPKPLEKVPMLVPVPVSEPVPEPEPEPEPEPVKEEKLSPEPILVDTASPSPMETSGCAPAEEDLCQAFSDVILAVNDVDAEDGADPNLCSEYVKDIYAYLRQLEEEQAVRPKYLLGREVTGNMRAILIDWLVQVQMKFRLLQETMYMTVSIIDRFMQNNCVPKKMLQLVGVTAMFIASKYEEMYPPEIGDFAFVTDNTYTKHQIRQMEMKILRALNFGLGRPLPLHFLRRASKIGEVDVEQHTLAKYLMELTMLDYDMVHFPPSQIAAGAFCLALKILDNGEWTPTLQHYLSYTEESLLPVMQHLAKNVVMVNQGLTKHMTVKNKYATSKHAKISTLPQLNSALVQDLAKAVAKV
Sequence of PKCtheta (Q04759 whole entry): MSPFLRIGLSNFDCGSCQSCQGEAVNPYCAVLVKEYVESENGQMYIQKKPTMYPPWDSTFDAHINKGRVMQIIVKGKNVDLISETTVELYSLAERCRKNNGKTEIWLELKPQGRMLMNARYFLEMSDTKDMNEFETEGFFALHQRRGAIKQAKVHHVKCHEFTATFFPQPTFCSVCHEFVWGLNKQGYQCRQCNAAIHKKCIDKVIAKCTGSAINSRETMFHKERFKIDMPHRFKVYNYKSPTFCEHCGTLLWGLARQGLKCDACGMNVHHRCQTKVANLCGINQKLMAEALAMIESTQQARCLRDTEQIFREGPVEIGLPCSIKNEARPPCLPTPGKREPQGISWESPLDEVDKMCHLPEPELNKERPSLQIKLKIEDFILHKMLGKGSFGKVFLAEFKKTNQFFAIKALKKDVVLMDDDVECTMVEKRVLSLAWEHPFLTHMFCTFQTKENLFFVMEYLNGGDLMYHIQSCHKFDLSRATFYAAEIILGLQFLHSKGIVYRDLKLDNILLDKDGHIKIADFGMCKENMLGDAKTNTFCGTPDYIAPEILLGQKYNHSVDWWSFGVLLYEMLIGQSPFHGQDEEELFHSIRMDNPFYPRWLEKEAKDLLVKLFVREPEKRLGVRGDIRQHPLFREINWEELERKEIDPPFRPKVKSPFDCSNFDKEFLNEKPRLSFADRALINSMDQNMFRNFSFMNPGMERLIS
Sequence of EPHB2 (P29323 19-1055): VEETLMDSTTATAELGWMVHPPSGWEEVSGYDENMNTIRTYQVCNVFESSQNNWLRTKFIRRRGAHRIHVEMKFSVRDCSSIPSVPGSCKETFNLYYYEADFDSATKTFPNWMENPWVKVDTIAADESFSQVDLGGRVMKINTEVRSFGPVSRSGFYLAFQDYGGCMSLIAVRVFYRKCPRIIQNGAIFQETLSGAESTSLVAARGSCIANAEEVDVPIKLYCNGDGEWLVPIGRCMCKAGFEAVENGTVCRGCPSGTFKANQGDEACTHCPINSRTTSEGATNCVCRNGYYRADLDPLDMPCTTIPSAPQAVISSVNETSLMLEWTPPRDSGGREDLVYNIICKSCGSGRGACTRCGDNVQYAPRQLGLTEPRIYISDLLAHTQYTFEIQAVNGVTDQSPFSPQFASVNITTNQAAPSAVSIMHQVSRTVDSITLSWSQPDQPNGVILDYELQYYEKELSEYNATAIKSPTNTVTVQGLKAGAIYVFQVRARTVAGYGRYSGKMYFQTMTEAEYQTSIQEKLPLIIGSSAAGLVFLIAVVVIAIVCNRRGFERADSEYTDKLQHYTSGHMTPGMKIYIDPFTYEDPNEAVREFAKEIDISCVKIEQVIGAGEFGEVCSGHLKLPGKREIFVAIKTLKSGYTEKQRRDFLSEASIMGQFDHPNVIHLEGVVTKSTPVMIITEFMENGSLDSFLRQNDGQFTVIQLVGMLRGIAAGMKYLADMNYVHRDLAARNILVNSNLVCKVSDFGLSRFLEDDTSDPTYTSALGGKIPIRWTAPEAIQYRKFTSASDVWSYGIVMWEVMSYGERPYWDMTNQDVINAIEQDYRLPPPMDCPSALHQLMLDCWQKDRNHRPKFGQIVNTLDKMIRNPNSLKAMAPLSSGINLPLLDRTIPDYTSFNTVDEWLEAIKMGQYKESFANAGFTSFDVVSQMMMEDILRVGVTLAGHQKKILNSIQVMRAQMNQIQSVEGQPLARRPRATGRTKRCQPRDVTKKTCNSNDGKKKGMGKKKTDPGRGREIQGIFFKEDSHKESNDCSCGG
Sequence of MAST3 (O60307 whole entry): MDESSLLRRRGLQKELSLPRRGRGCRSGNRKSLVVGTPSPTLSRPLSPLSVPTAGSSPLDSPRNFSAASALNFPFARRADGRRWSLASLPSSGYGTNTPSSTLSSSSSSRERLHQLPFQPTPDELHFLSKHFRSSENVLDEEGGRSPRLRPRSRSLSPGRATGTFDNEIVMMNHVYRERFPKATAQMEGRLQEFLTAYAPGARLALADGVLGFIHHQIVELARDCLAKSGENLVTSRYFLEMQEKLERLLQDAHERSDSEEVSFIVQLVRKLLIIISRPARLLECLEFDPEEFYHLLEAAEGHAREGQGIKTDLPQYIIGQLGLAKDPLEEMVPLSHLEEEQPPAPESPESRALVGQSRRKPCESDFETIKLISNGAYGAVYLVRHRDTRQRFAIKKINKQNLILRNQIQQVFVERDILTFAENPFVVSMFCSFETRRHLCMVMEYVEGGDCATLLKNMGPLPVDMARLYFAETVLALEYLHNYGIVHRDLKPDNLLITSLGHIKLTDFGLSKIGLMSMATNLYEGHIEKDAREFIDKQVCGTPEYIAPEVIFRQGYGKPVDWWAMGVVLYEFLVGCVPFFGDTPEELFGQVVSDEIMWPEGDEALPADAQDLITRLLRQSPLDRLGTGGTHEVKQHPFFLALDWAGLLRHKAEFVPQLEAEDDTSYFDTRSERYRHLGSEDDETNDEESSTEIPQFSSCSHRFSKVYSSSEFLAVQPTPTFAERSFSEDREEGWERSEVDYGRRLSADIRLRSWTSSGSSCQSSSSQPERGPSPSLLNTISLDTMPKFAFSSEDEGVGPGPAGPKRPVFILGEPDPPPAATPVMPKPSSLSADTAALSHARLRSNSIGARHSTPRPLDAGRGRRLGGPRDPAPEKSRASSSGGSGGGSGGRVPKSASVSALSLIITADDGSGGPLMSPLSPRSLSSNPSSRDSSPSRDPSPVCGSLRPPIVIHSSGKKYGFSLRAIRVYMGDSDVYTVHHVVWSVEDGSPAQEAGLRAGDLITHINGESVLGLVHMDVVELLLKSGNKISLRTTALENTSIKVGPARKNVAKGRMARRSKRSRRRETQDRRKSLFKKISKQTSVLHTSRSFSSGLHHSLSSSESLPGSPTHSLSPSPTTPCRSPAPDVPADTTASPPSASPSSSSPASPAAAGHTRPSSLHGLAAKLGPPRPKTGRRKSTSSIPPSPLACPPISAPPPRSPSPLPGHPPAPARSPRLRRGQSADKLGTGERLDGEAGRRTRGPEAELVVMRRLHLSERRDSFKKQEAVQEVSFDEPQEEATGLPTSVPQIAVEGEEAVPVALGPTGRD
Sequence of CAMK1b (Q6P2M8 whole entry): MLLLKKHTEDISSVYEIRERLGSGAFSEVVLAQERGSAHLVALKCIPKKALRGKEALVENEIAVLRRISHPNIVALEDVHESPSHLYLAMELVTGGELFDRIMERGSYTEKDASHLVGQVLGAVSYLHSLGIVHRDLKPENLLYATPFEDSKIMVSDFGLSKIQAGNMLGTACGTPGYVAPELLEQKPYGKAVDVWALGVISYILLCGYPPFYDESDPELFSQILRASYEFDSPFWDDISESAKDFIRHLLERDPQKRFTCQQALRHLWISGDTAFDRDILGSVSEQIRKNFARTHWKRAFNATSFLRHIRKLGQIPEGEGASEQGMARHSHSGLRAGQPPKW

CCn1cnc2c(NCc3ccc(-c4ccccn4)nc3)nc(-c3ccc(N)nc3)nc21 [Example 53, N-([2,2′-bipyridin]-5-ylmethyl)-2-(6-aminopyridin-3-yl)-9-ethyl-9H-purin-6-amine]
remaining activity at 10 µM (PKCg): 49.5% | remaining activity at 10 µM (TXK): 34.9% | remaining activity at 10 µM (CK2a2): 91.3% | activity at 10 µM (CYP1A2): 74.7% | remaining activity at 10 µM (c-MER): 71% | remaining activity at 10 µM (CAMK1b): 66.8% | remaining activity at 10 µM (PKCb1): 89.9% | remaining activity at 10 µM (CAMK2b): 65.2% | remaining activity at 10 µM (MSSK1/STK23): 82.8% | remaining activity at 10 µM (CAMK1d): 58% | remaining activity at 10 µM (FMS): 35.4% | remaining activity at 10 µM (MST4): 45.8% | remaining activity at 10 µM (DYRK2): 22.3% | remaining activity at 10 µM (PAK6): 57.2% | remaining activity at 10 µM (WEE1): 90.2% | remaining activity at 10 µM (MEKK2): 90% | remaining activity at 10 µM (ULK1): 70.3% | remaining activity at 10 µM (ERK7/MAPK15): 13.5% | remaining activity at 10 µM (Aurora A): 33.4% | remaining activity at 10 µM (PKA): 93.1% | remaining activity at 10 µM (CLK3): 94.6% | remaining activity at 10 µM (PKAcg): 88.4% | remaining activity at 10 µM (JNK3): 48.7% | remaining activity at 10 µM (c-Kit): 14.2% | remaining activity at 10 µM (PHKg2): 56.9% | remaining activity at 10 µM (HCK): 46.5% | remaining activity at 10 µM (CDK1/cyclin B): 2.06% | remaining activity at 10 µM (NIM1): 76% | remaining activity at 10 µM (PKCtheta): 79.8% | remaining activity at 10 µM (TAOK3/JIK): 23.1% | remaining activity at 10 µM (STK33): 33.5% | remaining activity at 10 µM (MAST3): 39.3% | remaining activity at 10 µM (TYRO3/SKY): 22.4% | remaining activity at 10 µM (EPHB2): 2.52% | remaining activity at 10 µM (ARK5/NUAK1): 20.8% | remaining activity at 10 µM (LIMK1): 59.9% | remaining activity at 10 µM (LCK2/ICK): 39.6%
